Read-outs that look alike come from different tables or passages of the source.
Columns and labels:
Type in all cases: cell-based
RSV strain A2 = experiment: microbe, parasite or virus in culture; settings: Table 3, HEp-2 cells, RSV A2, 4 days, read-out: RSV HEp-2 EC50
How it was run: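 Cytopathic-effect protection assay: HEp-2 cells (50,000/mL) infected with pre-titered RSV A2 onto 3-fold serial compound dilutions, incubated 4 days at 37° C. Cell viability read by CellTiter-Glo luminescence; percent inhibition derived against 0% and 100% virus-inhibition controls.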

RSV A2 = experiment: RSV NHBE EC50 (RSV A2 antiviral assay in NHBE cells); settings: Table 3, NHBE cells, RSV A2, 4 days, read-out: RSV NHBE EC50
How it was run: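 Luminescent ATP-based viability was recorded in RSV A2-infected normal human bronchial epithelial cells exposed to serially diluted compound (3-fold steps, 0.05% DMSO). Infection used 1×10^4.5 TCID/mL, with a 4-day incubation at 37° C.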

HRV16 = HRV16 HeLa EC50 (cytopathic effect in H1-HeLa cells)
How it was run: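 Read-out is luminescent cell viability (CellTiter-Glo) after 96 h of infection at 33 °C, scaled between uninfected and infected-untreated wells. Before infection with titrated virus, compounds went onto H1-HeLa cells as triplicate 3-fold dilution series.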

DENV2 replicon = experiment: DENV-2 Huh-7 Rep EC50 (replicon luminescence)
How it was run: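 EC50 derived from luminescence dose-response, normalised to DMSO-only 0% inhibition wells, after 1.5 h with EnduRen substrate. Compounds were first exposed for 48 h at 37° C to DENV2 replicon Huh-7 cells (5,000/well).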

[1] = human respiratory syncytial virus, HEp-2, 96 h
[2] = human respiratory syncytial virus, NHBE, 96 h
[3] = 96 h, Table 3; H1-HeLa cells, 96 h; read-out: HRV16 HeLa EC50
[4] = Dengue virus, DENV2, Huh-7, 48 h, read-out: DENV-2 REP Huh7 EC50
[5] = Table 3; H1-HeLa cells, 96 h; read-out: HRV16 HeLa EC50
[6] = Table 3, Huh-7 DENV2 replicon cells, 48 hours, read-out: DENV-2 REP Huh7 EC50
[7] = Dengue virus, DENV2, Huh-7, 48 h, read-out: DENV-2 REP Huh7 EC50, Table 3, Huh-7 DENV2 replicon cells, 48 hours

| SMILES | EC50 (RSV strain A2; [1]) | EC50 (RSV A2; [2]) | EC50 (HRV16; [3]) | EC50 (DENV2 replicon; [4]) | EC50 (RSV strain A2) | EC50 (RSV A2) | EC50 (HRV16; [5]) | EC50 (DENV2 replicon; [6]) | EC50 (DENV2 replicon; [7]) |
| --- | --- | --- | --- | --- | --- | --- | --- | --- | --- |
| CC(C)C(=O)O[C@H]1[C@H](c2ccc3c(N)ncnn23)O[C@](C#N)(COP(=O)(NCCOC(=O)C(C)(C)C)Oc2ccccc2)[C@H]1OC(=O)C(C)C (stereo partly drawn) [Example 97, (2R,3S,4S,5S)-5-(4-aminopyrrolo[2,1-f][1,2,4]triazin-7-yl)-2-cyano-2-(((phenoxy((2-(pivaloyloxy)ethyl)amino)phosphoryl)oxy)methyl)tetrahydrofuran-3,4-diyl bis(2-methylpropanoate)] | 366 nM | > 5000 nM | 1120 nM | 9050 nM | – | – | – | – | – |
| CC(=O)O[C@H]1[C@H](c2ccc3c(N)ncnn23)O[C@](C#N)(CO[P@@](=O)(N[C@@H](C)C(=O)OCC2CC2)Oc2ccccc2)[C@H]1OC(C)=O [Example 102] | – | – | – | – | 178 nM | 18 nM | 526 nM | 39100 nM | – |
| CCOC(=O)[C@H](C)N[P@](=O)(OC[C@@]1(C#N)O[C@@H](c2ccc3c(N)ncnn23)[C@H](OC(C)=O)[C@@H]1OC(C)=O)Oc1ccccc1 [Example 104, (2R,3S,4S,5S)-5-(4-aminopyrrolo[2,1-f][1,2,4]triazin-7-yl)-2-cyano-2-((((S)-(((S)-1-ethoxy-1-oxopropan-2-yl)amino)(phenoxy)phosphoryl)oxy)methyl) tetrahydrofuran-3,4-diyl diacetate] | 147 nM | 32 nM | 703 nM | 29100 nM | – | – | – | – | – |
| CCOC(=O)[C@H](C)N[P@](=O)(OC[C@@]1(C#N)O[C@@H](c2ccc3c(N)ncnn23)[C@H](OC(=O)CC)[C@@H]1OC(=O)CC)Oc1ccccc1 [Example 105, (2R,3S,4S,5S)-5-(4-Aminopyrrolo[2,1-f][1,2,4]triazin-7-yl)-2-cyano-2-((((S)-(((S)-1-ethoxy-1-oxopropan-2-yl)amino)(phenoxy)phosphoryl)oxy)methyl) tetrahydrofuran-3,4-diyl dipropionate] | 57 nM | 13 nM | 182 nM | 12900 nM | – | – | – | – | – |
| CC(C)OC(=O)[C@H](C)N[P@](=O)(OC[C@@]1(C#N)O[C@@H](c2ccc3c(NC(=O)C(C)C)ncnn23)[C@H](OC(=O)C(C)C)[C@@H]1OC(=O)C(C)C)Oc1ccccc1 [Example 106] | 173 nM | 15 nM | 805 nM | 14600 nM | – | – | – | – | – |
| CCC(=O)O[C@H]1[C@H](c2ccc3c(N)ncnn23)O[C@](C#N)(CO[P@@](=O)(N[C@@H](C)C(=O)OCC2CCOCC2)Oc2ccccc2)[C@H]1OC(=O)CC [Example 108] | – | – | – | – | 217 nM | 6 nM | 385 nM | 39300 nM | – |
| CCC(=O)O[C@H]1[C@H](c2ccc3c(N)ncnn23)O[C@](C#N)(CO[P@](=O)(N[C@@H](C)C(=O)OCC2CCOCC2)Oc2ccccc2)[C@H]1OC(=O)CC [Example 109] | – | – | – | – | 103 nM | 32 nM | 379 nM | 26300 nM | – |
| CC(=O)O[C@H]1[C@H](c2ccc3c(N)ncnn23)O[C@](C#N)(CO[P@](=O)(N[C@@H](C)C(=O)OCC2CCOCC2)Oc2ccccc2)[C@H]1OC(C)=O [Example 112] | – | – | – | – | 284 nM | 40 nM | 2900 nM | 36500 nM | – |
| CCC(CC)COC(=O)[C@H](C)NP(=O)(N[C@@H](C)C(=O)OCC(CC)CC)OC[C@@]1(C#N)O[C@@H](c2ccc3c(N)ncnn23)[C@H](OC(C)=O)[C@@H]1OC(C)=O [Example 114, (2R,3S,4S,5S)-5-(4-Aminopyrrolo[2,1-f][1,2,4]triazin-7-yl)-2-cyano-2-((((((S)-1-(2-ethylbutoxy)-1-oxopropan-2-yl)amino)(((2S)-1-(2-ethylbutoxy)-1-oxopropan-2-yl)amino)phosphoryl)oxy)methyl)tetrahydrofuran-3,4-diyl diacetate] | 1660 nM | 201 nM | 3850 nM | – | – | – | – | – | 26300 nM |
| CCC(=O)O[C@H]1[C@H](c2ccc3c(N)ncnn23)O[C@](C#N)(CO[P@@](=O)(N[C@@H](C)C(=O)OCC2CCN(CC(F)(F)F)CC2)Oc2ccccc2)[C@H]1OC(=O)CC [Example 116] | – | – | – | – | 273 nM | 15 nM | 303 nM | 19700 nM | – |
| CCC(=O)O[C@H]1[C@H](c2ccc3c(N)ncnn23)O[C@](C#N)(CO[P@](=O)(N[C@@H](C)C(=O)OCC2CCN(CC(F)(F)F)CC2)Oc2ccccc2)[C@H]1OC(=O)CC [Example 117] | – | – | – | – | 113 nM | 20 nM | 462 nM | 19100 nM | – |
| CC(=O)O[C@H]1[C@H](c2ccc3c(N)ncnn23)O[C@](C#N)(CO[P@@](=O)(N[C@@H](C)C(=O)OCC2CCN(CC(F)(F)F)CC2)Oc2ccccc2)[C@H]1OC(C)=O [Example 119] | – | – | – | – | 541 nM | 27 nM | 1050 nM | 71400 nM | – |
| CC(=O)O[C@H]1[C@H](c2ccc3c(N)ncnn23)O[C@](C#N)(COP(=O)(N[C@@H](C)C(=O)OC2CCCCC2)N[C@@H](C)C(=O)OC2CCCCC2)[C@H]1OC(C)=O [Example 121, (2R,3S,4S,5S)-5-(4-Aminopyrrolo[2,1-f][1,2,4]triazin-7-yl)-2-cyano-2-((((((S)-1-(cyclohexyloxy)-1-oxopropan-2-yl)amino)(((S)-1-cyclohexyloxy-1-oxopropan-2-yl)amino)phosphoryl)oxy)methyl)tetrahydrofuran-3,4-diyl diacetate] | 5450 nM | 498 nM | 6660 nM | – | – | – | – | – | 44400 nM |
| CC(C)[C@H](N)C(=O)O[C@H]1[C@H](c2ccc3c(N)ncnn23)O[C@](C#N)(CO[P@@](=O)(N[C@@H](C)C(=O)OC2CCCCC2)Oc2ccccc2)[C@H]1OC(=O)[C@@H](N)C(C)C [Example 122, (2R,3S,4S,5S)-5-(4-aminopyrrolo[2,1-f][1,2,4]triazin-7-yl)-2-cyano-2-((((S)-(((S)-1-(cyclohexyloxy)-1-oxopropan-2-yl)amino)(phenoxy)phosphoryl)oxy)methyl)tetrahydrofuran-3,4-diyl (2S,2'S)-bis(2-amino-3-methylbutanoate)] | 79 nM | 90 nM | 301 nM | 5540 nM | – | – | – | – | – |
| CCC(=O)O[C@H]1[C@H](c2ccc3c(N)ncnn23)O[C@](C#N)(COP(=O)(N[C@@H](C)C(=O)OC(C)C)N[C@@H](C)C(=O)OC(C)C)[C@H]1OC(=O)CC [Example 123, ((2R,3S,4R,5S)-5-(4-aminopyrrolo[2,1-f][1,2,4]triazin-7-yl)-2-cyano-3,4-dipropionatetetrahydrofuran-2-yl)methyl bis-isopropyl L-alaninate phosphate] | 2280 nM | 175 nM | 7570 nM | – | – | – | – | – | > 50000 nM |
| CCOC(=O)[C@H](C)NP(=O)(N[C@@H](C)C(=O)OCC)OC[C@@]1(C#N)O[C@@H](c2ccc3c(N)ncnn23)[C@H](OC(=O)CC)[C@@H]1OC(=O)CC [Example 124, ((2R,3S,4R,5S)-5-(4-aminopyrrolo[2,1-f][1,2,4]triazin-7-yl)-2-cyano-3,4-dipropionatetetrahydrofuran-2-yl)methyl bis-ethyl L-alaninate phosphate] | 2100 nM | 150 nM | 8390 nM | – | – | – | – | – | > 50000 nM |
